Experiment [1] concerns HIV-1 isolates from patient plasma samples. In kind it is cell-based. To be noted: for FC value: isolate 4 (K65R+M184V, R211S, K219E). On the procedure: The susceptibility of 2′,3′-dideoxy-3′-C-hydroxymethyl-cytosine on HIV-1 isolates from patient plasma samples that bear typical TAM primer rescue mutant resistant genotypes is determined by the commercially available PhenoSense HIV assay (described in Petropoulos, C J et al., (2000) Antimicrob. Agents Chemother. 44:920-928 and performed by ViroLogics, Inc). The assay is performed by amplifying the protease (PR)-RT segment of the HIV pol gene from patient plasma and inserting the amplification products into a modified HIV-1 vector derived from an NL4-3 molecular clone.
Viral stocks are prepared by co-transfecting 293 cell cultures with recombinant viral DNA vector and an expression vector that produces the amphotropic murine leukemia virus envelope proteins. Pseudotyped virus particles are harvested from the transfected cell cultures and are used to infect fresh 293 cell cultures. The recombinant viral DNA contains a luciferase gene cassette within the HIV env gene region and the production of luciferase in target cells is dependent on the completion of one round of virus replication. Drug susceptibility is measured by adding serial concentrations of the compound of the invention and the reference compounds to the cells. Drugs that inhibit virus replication reduce luciferase signal in a dose-dependent manner, providing a quantitative measure of drug susceptibility.

The subject of experiment [2] is TAM primer rescue-related resistant HIV isolates. The experiment is described as follows: Drug susceptibility assay in PBMC culture (p24 antigen). The experiment is classed as cell-based, HIV-1. Here is the method: The antiviral performance of the compound of the invention against additional TAM primer rescue-related resistant HIV isolates was assayed in a PBMC culture. Isolates of HIV-1 were generated and expanded to high titer by co-cultivation of infected patient PBMC with PHA-stimulated donor PBMC (Virology Manual for ACTG HIV Laboratories). The cell-free supernatants were harvested, sequenced, and stored in aliquots at −70° C. for drug susceptibility assays.
In vitro drug susceptibility assays were performed using a modified ACTG/DOD consensus method (Virology Manual for ACTG HIV laboratories). PBMCs were pre-infected with viral stocks for 4 hrs at […] in a humidified atmosphere of 5% CO2 following 4 hr incubation. Infected cells were washed twice in media and pipetted into a microtiter plate with eight serial drug dilutions. Each well contained 100,000 pre-infected PBMC and all drug dilutions were made with cell culture medium. The drug dilutions were chosen to span the 50% inhibitory concentration (IC50) for each single drug. Control wells containing cells and virus were co-incubated on each plate. After a 7-day incubation at […] in a […] atmosphere of 5% CO2, viral growth was determined using a p24 antigen assay on supernatants (Abbott Laboratories, Chicago, USA). The percent inhibition of viral growth compared to the control well, which contained no drug, was calculated and expressed as fold changes (reductions in compounds susceptibility) compared to the control well. The reference compound AZT was run in parallel with the compound of the invention.
A cluster of representative of primer rescue-related mutant virus was selected that harbors the essential feature of primer rescue-related TAM resistant RT mutations. Strains with mutations at position M41L, D67N, K70R, L210W, T215Y/F and K219Q/E in various combinations with or without discriminative mutant M184V were used as indicated in Table 4.

The subject of another experiment is HIV. The experiment is described as follows: Antiretroviral ED50 in human H9 cells. The experiment is classed as cell-based. To be noted: Human immunodeficiency virus 1.
For experiment [3], the target named is T1, HIV-1 RT (Human immunodeficiency virus type 1 group M subtype B, UniProt P04585). The experiment is described as follows: Residual free 3′-OH primer terminus after pre-incubation, second round of RT-catalysed DNA polymerization. The experiment is classed as biochemical. The note with it: pre-incubation 10 and 30 minutes; ddCTP compared to the triphosphate of the compound of the invention. On the procedure: The presence of a 3′-hydroxymethyl group in the compound of the invention should, in principle, support incorporation and elongation into the viral nucleic acid catalyzed by HIV-1 RT. A rate-limiting amount of primer-template (16S and 23S ribosomal RNA annealed with an oligo-DNA primer with the sequence of 5′-[…]-3′ (SEQ ID NO:1), custom synthesized by INNOVAGEN) was used. This was pre-incubated with 100 μM (55 times the IC50) 2′-3′-dideoxy-3′-C-hydroxymethylcytidine-triphosphate, 6.0 μM ddC-triphosphate (54 times the IC50 ddCTP), 20 μM deoxycytosine-triphosphate (20 times the Km dCTP) or the control (H2O). At the time points indicated (0, 10, 30, 60, and 120 min), the DNA polymerization process was stopped by inactivation of the RT at 70° C. for 2 min during the first round of DNA polymerization (FIG. 9).
The residual amount of primer-template directly reflects the availability of free 3′-OH primer terminus present after the first round of reaction. […] The availability of free 3′-OH at the primer terminus in the residual amount of primer-template that supported further DNA polymerization was measured and expressed as a function of pre-incubation time (FIG. 10).

The target in experiment [4] is T1, HIV-1 RT. The experiment is described as follows: DNA chain termination assay (M13mp18 template, gel autoradiography). In kind it is biochemical. On the procedure:
Two deoxycytosine analogues, the conventional NRTI ddC lacking a 3′-hydroxyl group function and the compound of the invention, were subjected to a DNA chain termination assay in which DNA prolongation was conducted with M13mp18 single strand DNA template pre-annealed to an oligo-DNA primer (the forward primer sequence of 5′-[…]-3′ (SEQ ID NO:2) was purchased from Amersham UK. M13mp18 single strand […] was annealed to this oligo-DNA primer giving a final concentration of 1 mg/ml in a buffer containing 10 mM Tris-HCl, pH 7.9 and 100 mM NaCl, and was stored in aliquots at −20° C. DNA polymerization was conducted using this annealed template/primer, HIV-1 RT and natural dNTPs in a reaction incubated at 37° C. for 25 min. The reaction was stopped by the addition of Stop solution containing 95% Formamide, 20 mM EDTA, 0.05% Bromophenol Blue and 0.05% Xylene Cyanol FF (purchased from USB, United States Biochemical via Amersham UK). After denaturing the DNA products, the elongated DNA fragment was electrophoresed on an 8.0% polyacrylamide gel and visualized using autoradiography.
The assay included a negative control (the native dNTP), dual positive ddCTP controls (ddCTP, 8 uM from Sigma Chemical, St. Louis, Miss., USA and ddCTP obtained from a USB sequence kit United States Biochemical via Amersham UK). Various molecule ratios of the triphosphate of the compound of the invention and the natural dNTP were used. After the reaction was conducted as described above, the denatured DNA fragments from each individual reaction was loaded onto an 8.0% polyacrylamide gel in the following order: • 1—Negative control • 2—1st Positive control 8 μM ddCTP (purchased from Sigma) • 3—20 μM inventionTP in 200 μM dNTP • 4—30 μM inventionTP in 300 μM dNTP • 5—40 μM invention TP in 400 μM dNTP • 6—50 μM invention TP in 500 μM dNTP • 7—20 μM invention TP in 80 μM dNTP • 8—40 μM invention TP in 80 μM dNTP • 9—Empty space (no loading) • 10—2nd positive control ddCTP (from USB sequence kit)

Setting [5] is: primer rescue mutant isolates of Table 4.

The values below come from US7829548B2, “Compounds useful in the treatment of HIV” (Medivir AB, priority 2004, dated 2010).

Molecules are shown by their SMILES. Where two headings read alike, the source gives them in different places.

For `Cc1cn([C@H]2C[C@H](N=[N+]=[N-])[C@@H](CO)O2)c(=O)[nH]c1=O` [AZT, zidovudine], the figures for the FC value in experiment [1], in experiment [2] (isolate 7086 (T215V)) and in experiment [2] (setting [5]) were 1.11, 3.0 and “a couple of hundred folds”, respectively.

`Nc1ccn([C@H]2C[C@H](CO)[C@@H](CO)O2)c(=O)n1` [compound of the invention, 2′,3′-dideoxy-3′-C-hydroxymethylcytidine]: the FC value in experiment [1] is reported as 3.88; in experiment [2] (setting [5]), at most 2.7. For the same compound, the “fold difference in susceptibility” value in experiment [1] (patient isolate 19 (M184V + TAMs), compared to wild type HIV) is listed as 1.78 fold. Also, the “fold reduction in susceptibility” value in experiment [1] (patient isolate 20 (TAM), compared to wild-type HIV) is 1.0 fold; in experiment [1] (patient isolate 21 (TAM), compared to wild-type HIV), under 1.0 fold; in experiment [1] (patient isolate 32 (T69S + VG insertion)) it was 2.79 fold; in experiment [1] (patient isolate 35 (T69S + VA insertion)), 4.29 fold. Further, in experiment [1] (patient isolates 31, 32 and 35 (T69S + XX + TAMs), compared with six reference antivirals), the “change in drug susceptibility” value is “smallest change in drug susceptibility”. The EC50 (commonly the midpoint of the concentration-response curve) in the experiment on HIV is about 10 nM.

For the compound `Nc1ccn([C@H]2CC[C@@H](COP(=O)(O)OP(=O)(O)OP(=O)(O)O)O2)c(=O)n1` [ddCTP, ddC-triphosphate, reference compound], at HIV-1 RT [3], the “residual 3-OH primer terminus left to support further DNA prolongation” value was “less than half”. For the same compound, the chain termination pattern entry on HIV-1 RT [4] (lane 2, 1st positive control, 8 μM) is recorded as “led to chain termination at the anticipated 2′3′-deoxydeoxycytosine sites”; at HIV-1 RT [4] (lane 10, 2nd positive control (USB sequence kit)) it was “led to chain termination at anticipated 2′3′-deoxydeoxycytosine sites”.

For `Nc1ccn([C@H]2C[C@H](CO)[C@@H](COP(=O)(O)OP(=O)(O)OP(=O)(O)O)O2)c(=O)n1` [inventionTP, 2′-3′-dideoxy-3′-C-hydroxymethylcytidine-triphosphate], the chain termination pattern entry at HIV-1 RT [4] (lane 3, 20 μM TP / 200 μM dNTP) was “led to chain termination at the site after/behind 2′3′-deoxydeoxycytosine site”; at HIV-1 RT [4] (lane 4, 30 μM TP / 300 μM dNTP) it was “led to chain termination at the site after 2′3′-deoxydeoxycytosine site”; on HIV-1 RT [4] (lane 5, 40 μM TP / 400 μM dNTP), “lead to chain termination at the site after 2′3′-deoxydeoxycytosine site”; at HIV-1 RT [4] (lane 6, 50 μM TP / 500 μM dNTP), “No specific pause (chain termination pattern) was found”; on HIV-1 RT [4] (lane 7, 20 μM TP / 80 μM dNTP), “led to a more pronounced chain termination effect at the site after the 2′3′-deoxydeoxycytosine site”; at HIV-1 RT [4] (lane 8, 40 μM TP / 80 μM dNTP), “led to a more pronounced chain termination effect at the site after the 2′3′-deoxydeoxycytosine site”.
